Reference: ChEMBL document CHEMBL1201862, “PubChem BioAssay data set” (2004)
The source made the active and inactive calls.

Assays:
[1] = target: Paired box protein Pax-8 (Homo sapiens, UniProt Q06710); experiment: inhibitors of PAX8-driven TPO luciferase reporter, dose response, RMG-I cells, cherry-pick (AID 687027); assay type: functional, cell-based;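 also: luciferase reporter driven by Pax8 target thyroperoxidase promoter measured by SteadyGlo luminescence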
[2] = NIH:OVCAR-3 ovarian cancer cell cytotoxicity, dose response, PAX8 inhibitor project, plate reader, dry powder samples (AID 743044); assay type: functional, cell-based
[3] = inhibitors of PGC1a acetylation in cells, dose response, cell-based, cherry-picked samples (AID 720514); assay type: functional;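 also: potency may reflect raised or lowered acetylation signal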
[4] = HEK293T cytotoxicity, dose response, cytotoxicity control for miR-122 modulator project, cell-based, inhibitor set, cherry-pick, set 2 (AID 720697); assay type: functional
[5] = miR-122 activators in hepatoma reporter cells, dose response, cell-based, Huh7 psiCHECK-miR122, Renilla luciferase, cherry-picked (AID 651956); assay type: functional;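 also: huh7 hepatoma cells stably carrying a psiCHECK-2 miR-122 sensor plasmid; renilla luciferase signal reporting endogenous miR-122 activity after 48 h compound exposure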
[6] = P. falciparum Dd2 growth inhibitors, dose response, SYBR Green, cherry-picked samples (AID 1159567); assay type: functional, cell-based
[7] = HepG2 cell cytotoxicity, dose response, cytotoxicity control, cherry-picked samples (AID 1159577); assay type: functional, cell-based
[8] = P. falciparum Dd2 growth inhibitors, dose response, SYBR Green, dry powder samples, set 9 (AID 1159568); assay type: functional, cell-based
[9] = P. falciparum 3D7-ScDHODH growth inhibitors, dose response, SYBR Green, dry powder samples (AID 1159570); assay type: functional, cell-based;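 also: parasite growth measured after 72 hours of compound exposure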
[10] = P. falciparum ATP4 D1247Y mutant growth inhibitors, dose response, NITD609-resistant line, SYBR Green, dry powder (AID 1159571); assay type: functional, cell-based;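 also: parasites synchronized at ring stage by sorbitol before testing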
[11] = P. falciparum Dd2 growth inhibitors, dose response, SYBR Green, dry powder samples (AID 1159566); assay type: functional, cell-based;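 also: potency for growth inhibition with lower SYBR green DNA signal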
[12] = Plasmodium falciparum Dd2 Sybr green parasite growth Measured in Cell-Based and Microorganism Combination System Using Plate Reader - 2153-01_Inhibitor_Dose_DryPowder_Activity_Set3.; assay type: functional
[13] = cells; assay type: functional, cell-based
[14] = target: T1, Trace amine-associated receptor 1 (Homo sapiens, UniProt Q96RJ0); experiment: Counterscreen for agonists of the human trace amine associated receptor 1 (hTAAR1): Fluorescence-based cell-based high throughput dose response assay to identify hTAAR1 agonist that also desensitize TAAR1 receptor response.; assay type: functional
T1 sequence (Q96RJ0 whole entry): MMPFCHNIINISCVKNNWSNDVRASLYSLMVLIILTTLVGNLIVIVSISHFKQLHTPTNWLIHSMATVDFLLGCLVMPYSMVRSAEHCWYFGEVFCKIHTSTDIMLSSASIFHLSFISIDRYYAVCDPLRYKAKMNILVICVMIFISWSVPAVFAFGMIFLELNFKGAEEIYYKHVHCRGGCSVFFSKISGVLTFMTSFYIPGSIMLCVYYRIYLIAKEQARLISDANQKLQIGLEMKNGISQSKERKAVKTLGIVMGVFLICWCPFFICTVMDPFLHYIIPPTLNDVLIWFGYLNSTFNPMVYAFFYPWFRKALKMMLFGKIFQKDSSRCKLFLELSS

[15] = target: T1, Trace amine-associated receptor 1; experiment: Fluorescence-based cell-based high throughput dose response assay to identify agonists of the human trace amine associated receptor 1 (TAAR1).; assay type: functional
[16] = target: Mu-type opioid receptor (Homo sapiens, UniProt P35372); assay type: functional, cell-based;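 also: U2OS cells with beta-arrestin recruitment to OPRM1 by beta-gal complementation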
Mu-type opioid receptor, sequence (P35372 whole entry): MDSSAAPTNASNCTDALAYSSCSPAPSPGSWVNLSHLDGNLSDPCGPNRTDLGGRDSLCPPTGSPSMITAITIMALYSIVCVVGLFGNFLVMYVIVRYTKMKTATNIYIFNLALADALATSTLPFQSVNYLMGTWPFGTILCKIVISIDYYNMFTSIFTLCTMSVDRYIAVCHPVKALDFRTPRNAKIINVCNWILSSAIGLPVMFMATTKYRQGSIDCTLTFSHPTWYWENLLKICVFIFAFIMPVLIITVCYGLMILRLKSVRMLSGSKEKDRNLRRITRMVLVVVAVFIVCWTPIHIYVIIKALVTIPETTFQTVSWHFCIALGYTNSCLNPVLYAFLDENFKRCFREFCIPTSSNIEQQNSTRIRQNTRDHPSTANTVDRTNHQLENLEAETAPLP

[17] = target: 5-hydroxytryptamine receptor 2A (Mus musculus, UniProt P35363); assay type: functional, cell-based;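 also: CHO-K1 cells with tagged receptor and beta-arrestin; agonist potency measured as compound-induced activation of the receptor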
5-hydroxytryptamine receptor 2A, sequence (P35363 whole entry): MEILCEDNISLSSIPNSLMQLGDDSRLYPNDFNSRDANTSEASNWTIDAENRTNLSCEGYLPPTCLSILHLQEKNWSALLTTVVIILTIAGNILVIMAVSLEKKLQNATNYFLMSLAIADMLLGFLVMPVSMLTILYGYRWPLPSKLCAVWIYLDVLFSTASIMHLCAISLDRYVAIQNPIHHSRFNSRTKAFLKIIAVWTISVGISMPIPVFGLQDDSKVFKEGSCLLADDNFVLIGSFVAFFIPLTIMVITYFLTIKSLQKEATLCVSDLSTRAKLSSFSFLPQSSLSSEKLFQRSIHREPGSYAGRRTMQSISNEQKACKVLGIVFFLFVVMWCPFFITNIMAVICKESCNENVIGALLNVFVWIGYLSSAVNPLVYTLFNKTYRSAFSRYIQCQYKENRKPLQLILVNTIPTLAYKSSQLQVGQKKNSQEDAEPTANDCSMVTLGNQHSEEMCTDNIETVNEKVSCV

[18] = cells; assay type: functional, cell-based; remark: listed apart in the source
[19] = target: T2, Zinc finger protein mex-5 (Caenorhabditis elegans, UniProt Q9XUB2); experiment: MEX-5/TCR-2 RNA interaction inhibitors, dose response, biochemical, C. elegans, fluorescence polarization (AID 1960)
T2 sequence (Q9XUB2 whole entry): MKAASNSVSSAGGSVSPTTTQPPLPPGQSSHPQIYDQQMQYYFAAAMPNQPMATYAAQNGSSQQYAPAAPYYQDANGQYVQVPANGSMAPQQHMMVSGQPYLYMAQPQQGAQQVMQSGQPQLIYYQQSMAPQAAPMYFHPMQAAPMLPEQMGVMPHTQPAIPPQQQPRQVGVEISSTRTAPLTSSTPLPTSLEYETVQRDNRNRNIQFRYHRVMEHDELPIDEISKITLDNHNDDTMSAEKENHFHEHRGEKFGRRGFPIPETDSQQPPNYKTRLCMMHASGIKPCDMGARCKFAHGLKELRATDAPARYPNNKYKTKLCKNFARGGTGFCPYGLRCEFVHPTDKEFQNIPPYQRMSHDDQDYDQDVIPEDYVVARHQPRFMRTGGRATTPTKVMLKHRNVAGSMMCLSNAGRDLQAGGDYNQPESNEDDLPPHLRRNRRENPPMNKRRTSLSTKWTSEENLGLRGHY

[20] = target: Kallikrein-7 (Homo sapiens, UniProt P49862); experiment: Fluorescence Intensity-based biochemical primary high throughput dose response assay to identify activators of kallikrein-7 (K7) zymogen.
Kallikrein-7, sequence (P49862 whole entry, the tested form may be a part): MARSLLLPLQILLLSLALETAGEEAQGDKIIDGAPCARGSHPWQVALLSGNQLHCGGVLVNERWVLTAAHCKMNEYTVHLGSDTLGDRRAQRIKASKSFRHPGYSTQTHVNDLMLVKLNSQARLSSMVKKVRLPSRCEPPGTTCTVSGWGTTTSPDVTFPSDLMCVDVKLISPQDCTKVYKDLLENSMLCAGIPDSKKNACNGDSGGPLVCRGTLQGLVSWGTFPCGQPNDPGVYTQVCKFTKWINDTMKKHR

[21] = target: T3, RNA-binding protein pos-1 (Caenorhabditis elegans, UniProt G5EF15); experiment: inhibitors of POS-1/mex-3 RNA binding, dose response, biochemical, fluorescence polarization (AID 1964);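 also: purified POS-1 fused to maltose binding protein made in E. coli; potency of compounds blocking POS-1 binding to fluorescent RNA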
T3 sequence (G5EF15 whole entry): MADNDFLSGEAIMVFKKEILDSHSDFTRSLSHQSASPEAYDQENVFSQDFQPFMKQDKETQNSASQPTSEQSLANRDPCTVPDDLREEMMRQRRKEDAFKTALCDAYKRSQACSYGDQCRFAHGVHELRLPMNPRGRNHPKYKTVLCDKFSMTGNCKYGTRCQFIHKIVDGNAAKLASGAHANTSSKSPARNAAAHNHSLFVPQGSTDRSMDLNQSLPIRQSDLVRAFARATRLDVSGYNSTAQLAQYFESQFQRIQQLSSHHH

[22] = cytotoxicity toward Colo320 cells – cell-based, CellTiter-Glo luminescence, IC50, dose response (AID 1117334); assay type: functional; details: COLO 320
[23] = cytotoxicity in HEK-293T cells, dose response, cytotoxicity control for TCR NF-kB inhibitor project, luminescence, T-cell screen hits (AID 489026); assay type: functional, cell-based;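 also: cells exposed to compound about 14 hours before the viability readout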
[24] = SNU-C1 cell viability reduction, dose response, CellTiter-Glo luminescence (AID 1117323); assay type: functional, cell-based
[25] = RKO cell viability reduction, dose response, CellTiter-Glo luminescence (AID 1117322); assay type: functional
[26] = cytotoxicity toward HT-29 cells – cell-based, CellTiter-Glo luminescence, IC50, dose response (AID 1117330); assay type: functional
[27] = Concentration-dependent survival of SW480 colon cancer line, luminescence detection with CellTiter-Glo, half-maximal inhibitory concentration (AID 1117338); assay type: functional
[28] = CellTiter-Glo luminescent dose response of DLD-1 viability loss (AID 1117352); assay type: functional
[29] = cytotoxicity toward HCT116 cells – cell-based, CellTiter-Glo luminescence, IC50, dose response (AID 1117332); assay type: functional; details: HCT-116

Paired box protein Pax-8, sequence (Q06710 whole entry): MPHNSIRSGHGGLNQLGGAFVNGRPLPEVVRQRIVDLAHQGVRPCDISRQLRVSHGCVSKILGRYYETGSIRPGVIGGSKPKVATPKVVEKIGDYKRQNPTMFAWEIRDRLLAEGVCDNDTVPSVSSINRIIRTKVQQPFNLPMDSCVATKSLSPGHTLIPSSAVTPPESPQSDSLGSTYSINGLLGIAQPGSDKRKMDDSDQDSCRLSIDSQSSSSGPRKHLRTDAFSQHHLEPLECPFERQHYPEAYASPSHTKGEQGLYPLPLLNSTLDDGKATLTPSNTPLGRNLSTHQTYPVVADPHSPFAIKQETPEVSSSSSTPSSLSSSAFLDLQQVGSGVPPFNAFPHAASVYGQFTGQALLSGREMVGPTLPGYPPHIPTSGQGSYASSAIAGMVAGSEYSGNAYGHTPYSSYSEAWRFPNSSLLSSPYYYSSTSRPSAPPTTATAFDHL

In the case of `COc1ccc(C#Cc2ccc([C@H]3[C@@H](CO)N4CCCCN(C(=O)Nc5ccccc5)C[C@H]34)cc2)cc1`, the AC50 [1] was 12.5 µM (active), the AC50 [2] was 30.4 µM (active) and the AC50 [3] was 16.4 µM (active). The AC50 [4] was 7.88 µM (active) and the AC50 [5] was 6.04 µM (active).

In the case of `COc1cccc(S(=O)(=O)N2CCCCN3[C@@H](CO)[C@@H](c4ccc(C#CCC(C)C)cc4)[C@@H]3C2)c1`, the AC50 [1] was 14.6 µM (active), the AC50 [6] was 0.991 µM (active) and the AC50 [2] was 43.3 µM (active). For the same molecule, the AC50 [7] was 11.8 µM (active) and the AC50 [8] was 1.48 µM (active).

In the case of `CCCNC(=O)Nc1ccc2c(c1)OC[C@@H](C)N(Cc1ccccc1)C[C@@H](C)[C@H](OC)CN(C)C2=O`, the AC50 [6] was 1.43 µM (active), the AC50 [9] was 3.25 µM (active) and the AC50 [10] was 0.828 µM (active). For the same molecule, the AC50 [11] was 0.154 µM (active), the AC50 [8] was 0.307 µM (active) and the AC50 [12] was 0.826 µM (active).

For `O=S(=O)(Cc1ccccc1)N1CCCCN2[C@@H](CO)[C@H](c3ccc(C#Cc4ccccc4)cc3)[C@@H]2C1`, the AC50 [6] was 4.25 µM (active) and the AC50 [7] was 8.93 µM (active).

For `CN1C[C@H](CO)C=C2c3cccc4[nH]cc(c34)C[C@H]21`, the IC50 [13] was > 29.9 µM (inactive), the IC50 [14] was 4.58 µM (active) and the EC50 [15] was 7.63 µM (active). The EC50 [16] was 92.5 µM (inactive), the EC50 [17] was 0.018 µM (active) and the EC50 [18] was > 29.9 µM (inactive). The EC50 [19] was 53.2 µM (inconclusive), the EC50 [20] was > 7.72 µM (active) and the EC50 [21] was 20.6 µM (active).

With `Nc1ncn([C@@H]2O[C@H](CO)[C@@H](O)[C@H]2O)c(=O)n1` [AZACITIDINE] the IC50 [22] was 12.3 µM (inactive), the IC50 [23] was > 80 µM (inactive) and the IC50 [24] was 1.8 µM (active). For the same molecule, the IC50 [25] was 7.4 µM (inactive), the IC50 [26] was 12.5 µM (inactive) and the IC50 [27] was > 6.67 µM (inactive). The IC50 [28] was 2.55 µM (active) and the IC50 [29] was 3.04 µM (active).
